Data as given in patent US12564641B2 (EISAI R&D MANAGEMENT CO., LTD., priority 2019, dated 2026).
Like-named read-outs stand apart in the source and are kept apart here.

Columns and labels:
A431 cells = assay: In vitro cytotoxicity analysis (Crystal Violet), A431; details: Homo sapiens, A-431, read-out: Cell based Cytotoxicity assay, EC50 (nM) A431-6 hr; treated with ADC for 6 hours then washed off
Procedure: (§1) Plates were read at 570 nm. Data was analyzed using GraphPad Prism 6.
All ADCs were purified and characterized using SEC-HPLC for aggregation analysis, HIC-HPLC for DAR analysis, and cell-based assay with A431-A3 (MSLN^hi), A431 (MSLN^lo), and OVCAR3 (MSLN^hi) cell lines.

[1] = system: A3 (A431 stably transfected with human mesothelin) cells; assay: In vitro cytotoxicity analysis (Crystal Violet), A3; assay type: cell-based
Procedure: as §1
Fifteen anti-mesothelin antibodies were sub-cloned, scale-up expressed and purified, and conjugated using maleimide-VCP-eribulin as payload at the Cys80 position. All ADCs were purified and characterized using SEC-HPLC for aggregation analysis, HIC-HPLC for DAR analysis, and cell-based assay with A431-A3 (MSLN^hi), A431 (MSLN^lo), and OVCAR3 (MSLN^hi) cell lines. […] Based on the characterization data below, six antibodies (bolded) were selected for humanization.

[2] = system: human mesothelioma HAY xenograft
Procedure: Female CD-1 IGS mice (Charles River, 7-9 weeks old) were used for the maximum tolerated dose (MTD) study, female NOD.CB17-SCID mice (Jackson Laboratory) were used for the NCI-H2110 and HAY xenograft studies, and female NCr nude mice (Taconic, 5 weeks old) were used for the NCI-N87 xenograft studies. Upon arrival, animals were acclimated for 5-7 days prior to inoculation.
Cryopreserved NCI-H2110, NCI-N87, or HAY cells from frozen stocks were cultured in medium containing necessary supplements.
Mice were injected subcutaneously with 100 μL/mouse of cell mixture and monitored for body weight and tumor growth.
Mice were randomized to five mice per group once tumor implants reached an average volume of 100 mm^3. Treatment was given intravenously at a volume of 200 μL. Terminal body weight was measured and recorded at the end of each study.
Comparison of tumor growth within each experimental group was also performed using the same statistical analysis.

human NSCLC PDX LC-F-25 = assay: Human NSCLC PDX model LC-F-25; assay type: in vivo, mouse
Procedure: Statistical analysis: Statistical analysis was performed for each measurement by a Mann-Whitney non-parametric comparison test. Each treated group was compared with the control group.

MSLN-negative cell lines = assay: In vitro cytotoxicity (IC50, Crystal Violet) on MSLN-negative cell lines (Example 11); assay type: cell-based; details: for IC50: Homo sapiens, read-out: In vitro cell based potency, IC50
Procedure: Plates were incubated at 37° C. 5% CO2 for an additional 5 days. […] Plates were read at 570 nm.

[3] = eribulin single dose of 0.1 mg/kg i.v.
[4] = eribulin single dose of 3.2 mg/kg i.v.

C=C1C[C@@H]2CC[C@@]34C[C@H]5O[C@H]6[C@@H](O3)[C@H]3O[C@H](CC[C@@H]3O[C@H]6[C@H]5O4)CC(=O)C[C@@H]3[C@@H](OC)[C@@H](C[C@H](O)CN)O[C@H]3C[C@H]3O[C@@H](CC[C@@H]1O2)C[C@@H](C)C3=C [Eribulin, eribulin, reference compound]
EC50 (A431 cells): 2.86 nM
EC50 ([1]; A-431, 120 h, Table 18, 5 days, read-out: Cell-Based Cytotoxicity Assay, EC50 (nM) A3): 1.03 nM
EC50 ([1]; A-431, Table 19, payloads, read-out: Cell-Based Cytotoxicity Assay EC50 (nM) A3): 1.03 nM
EC50 ([1]; A-431, read-out: Cell based Cytotoxicity assay, EC50 (nM) A3-6 hr, treated with ADC for 6 hours then washed off): 4.08 nM
EC50 ([1]; A-431, read-out: Cell based Cytotoxicity assay, EC50 (nM) A3-48 hr, treated for 48 hours): 1.09 nM
anti-tumor effect ([2]; eribulin alone 0.1 mg/kg (equivalent molar amount as in MORAb-109)): limited anti-tumor effects
anti-tumor effect ([2]; eribulin alone at the MTD (3.2 mg/kg)): limited anti-tumor effects
tolerability (human NSCLC PDX LC-F-25; [3]): well tolerated
tumor growth inhibition (human NSCLC PDX LC-F-25; [3]): did not induce statistically significant tumor growth inhibition
tolerability / bodyweight (human NSCLC PDX LC-F-25; eribulin single dose of 3.2 mg/kg (mouse MTD) i.v., from 3 to 10 days after administration): slight and transient bodyweight loss
partial tumor regressions (human NSCLC PDX LC-F-25; [4]): 6 out of 8
tumor growth inhibition (human NSCLC PDX LC-F-25; [4]): statistically significant tumor growth inhibition
% Max Killing (MSLN-negative cell lines; A431 cells (MSLN MFI 5.6)): 93.04%
% Max Killing (MSLN-negative cell lines; BxPC3 cells (MSLN MFI 15.59)): 97.28%
IC50 (MSLN-negative cell lines; A-431, A431 cells (MSLN MFI 5.6)): 0.18 nM
IC50 (MSLN-negative cell lines; BXPC-3, BxPC3 cells (MSLN MFI 15.59)): 0.13 nM
IC50 (MSLN-negative cell lines; SK-OV-3, SKOV3 cells (MSLN MFI 20)): 0.14 nM
% Max Killing (MSLN-negative cell lines; SKOV3 cells (MSLN MFI 20)): 72.82%
